Values quoted from earlier work as cited in US10196677B2, “Method for identification of sensitivity of a patient to telomerase inhibition therapy” (Geron Corporation, priority 2008, dated 2019).
Entries after “also recorded” stand apart in the source; their conditions may differ. [NPS] = N3'→P5' thiophosphoramidate linkage

Experiments:
[1] = tested on: cancer cells; conditions: cell culture, various cancer cell types
[2] = tested on: animal tumor models; conditions: animal tumor models / human cancer cells, local and systemic delivery

GRN163: oligonucleotide with sequence TAGGGTTAGACAA (SEQ ID NO:2) and N3′→P5′ thiophosphoramidate (NPS) linkages; hTR template inhibitor (all [NPS], sugars by position and methylation of C not given here)
Inhibitory activity / growth inhibition of cancer cells in vitro [1]: has shown inhibitory activity in vitro in cell culture; also recorded: have shown inhibitory activity in vitro
Activity against tumors in vivo [2]: therapeutically effective
